Data from patent US20260286297A1, “METHOD FOR PRODUCING GROUP 2 INNATE LYMPHOID CELLS” (KYOTO UNIVERSITY, priority 2023, published 2026).

Assays:
[1] = tested on: HPCs derived from the line Ff-101s04; assay: Differentiation induction from iPS cell-derived HPCs to ILC2s, different iPS cell line (Experiment 3); type: cell-based, human; conditions: HPCs from iPS line Ff-101s04; Condition 3 (3 μM Senexin A), Condition 4 (100 nM CCT-251921)
[2] = tested on: hematopoietic precursor cells (derived from iPS cell line 1231A2); assay: Differentiation induction from iPS cell-derived HPCs to ILC2s, flow cytometry (Experiments 2 and 4); type: cell-based, human; conditions: line 1231A2 HPCs; for induction of ILC2-like cell populations (lineage marker-negative, GATA3-expressing, capacity to produce IL-13): CDK8 inhibitor in medium B Day 6-12 (Senexin A 3 μM; CCT-251921 100 nM), flow cytometry after 12 days; for differentiation induction into ILC2-like cells containing IL-10-producing cells: Condition 2 plus CDK8 inhibitor in medium B Day 6-12 (Compounds 1-3 1 μM, Compound 4 10 μM)
Protocol: The HPCs prepared from the iPS cells in Experiment 1 were cultured to be differentiation-induced into ILC2s. Specifically, 2500 to 20000 HPC stock cells prepared from the line 1231A2 were seeded in a 96-well plate (Corning, 3799 or Iwaki, 3860-096) coated with 2.5 μg/mL Fc-DLL4 and 2.5 μg/mL RetroNectin™ (Day 0) and cultured at 37° C. in a 5% CO2 atmosphere under the medium conditions shown below for 12 days to be differentiation-induced. In the differentiation induction culture for 12 days, 100 μL of medium was added on Day 3, followed by medium replacement on Day 6 and Day 9. If the cells in each culture well are confluent after the medium replacement on Day 6 and Day 9, the cells in the well were suspended, 2-fold diluted, and reseeded in a new 96-well plate. In the cases of Conditions 2 to 4, IL-2 (BioLegend, 589108 or PeproTech, 200-02) was added to medium A at 200 U/mL. In the case of Condition 3, Senexin A (Selleck, S8520) was added to medium B at 3 μM as CDK8 inhibitor. In the case of Condition 4, CCT-251921 (MedChemExpress, HY-19984) was added to medium B at 100 nM as CDK8 inhibitor. The differentiated cells cultured as described above were stimulated at 37° C. in a 5% CO2 atmosphere for 4 to 6 hours using the following: • IL-1β (PeproTech, 200-01B), final concentration: 10 ng/ml. • IL-2, final concentration: 20 ng/ml. • IL-7, final concentration: 50 ng/ml. • IL-23 (BioLegend, 574106), final concentration: 20 ng/ml • IL-25 (IL-17E) (PeproTech, 200-24), final concentration: 20 ng/ml • eBioscience™ Cell Stimulation Cocktail (plus Protein transport inhibitor) (Thermo Fisher Scientific, 00-4975-03) The stimulated cells were subsequently stained and analyzed with an LSRFortessa™ Cell Analyzer (BD Biosciences) by flow cytometry. […] The present experiment confirmed the differentiation induction into ILC2s using multiple CDK8 inhibitors having different structures.

[3] = tested on: human cord blood-derived CD34-positive cells; assay: Differentiation induction from human cord blood-derived CD34-positive HPCs to ILC2s (Experiment 5); type: cell-based; conditions: Condition 3 (3 μM Senexin A), flow cytometry on Day 19
Excerpt: In order to ascertain the versatility of the method for differentiation induction in Experiment 2, the present experiment confirmed the differentiation induction from HPCs derived from the human body to ILC2s. Specifically, ILC2s were differentiation-induced by culturing purchased human cord blood-derived CD34-positive cells (Lonza, 2C-101) with the methods of Condition 1, Condition 2, and Condition 3 in Experiment 2. In the present experiment, the medium was also replaced with the same medium as on Days 6 to 12 on Day 12 and Day 15 of the culture, and the cells in each culture well were 2-fold diluted and reseeded in the case where the cells in the culture well were confluent.

[4] = tested on: iPS cell-derived HPCs differentiation culture; assay: Concentrations of cytokines in differentiation culture supernatant containing iPS cell-derived ILC2s (Experiment 6); type: cell-based, human; conditions: Day 12 culture supernatant; Condition 3 versus Conditions 1 and 2
Excerpt: The culture supernatant of Day 12 of the culture was collected that was differentiation-induced under “Condition 1”, “Condition 2”, and “Condition 3” described in Experiment 2, followed by the quantification of concentrations of IL-10, IL-5, and amphiregulin in the culture supernatant with the following kits, respectively. Amphiregulin is a cytokine that plays a central role in the capacity of ILC2s to repair tissue. It is conceivable that ILC2s having the capacity to repair tissue were obtained in the case where amphiregulin increased in concentration. • IL-10: Human IL-10 immunoassay kit (PerkinElmer, AL218C) • IL-5: Human IL-5 immunoassay kit (PerkinElmer, AL267C) • Amphiregulin: Human Amphiregulin Quantikine ELISA Kit (R&D Systems, DAR00)
IL-10 and IL-5 were measured with an Envision (Revvity). Amphiregulin was measured with a Powerscan4 (DS pharma biomedical Co., LTD.).

SMILES | differentiation induction of ILC2-like cells containing IL-10-producing cells [1] | induction of ILC2-like cell populations (lineage marker-negative, GATA3-expressing, capacity to produce IL-13) [2] | differentiation induction into ILC2-like cells containing IL-10-producing cells [2] | differentiation induction of ILC2-like cells containing IL-10-producing cells [3] | production of IL-5 in the culture supernatant [4] | production of IL-10 in the culture supernatant [4] | production of amphiregulin in the culture supernatant [4] | capacity of the induced ILC2-like cells to produce IL-10 ([2]; Condition 3, 3 μM Senexin A in medium B Day 6-12)
Cn1ncc2cc(-c3cnc(N)c(Cl)c3N3CCC4(CCNC4=O)CC3)ccc21 [CCT-251921] | ILC2-like cells containing IL-10-producing cells were differentiation-induced | ILC2-like cell populations were induced | observed |  |  |  |  | 
N#Cc1ccc2ncnc(NCCc3ccccc3)c2c1 [Senexin A] | ILC2-like cells containing IL-10-producing cells were differentiation-induced | ILC2-like cell populations were induced | observed | ILC2-like cells containing IL-10-producing cells were differentiation-induced | enhancement of production | enhancement of production | enhancement of production | had the capacity to produce IL-10
